Numbered stars: 1 amine (or outer) side, 2 acyl side, 3 side chain; on linkers, the order of the positions; unused ones are H or OH. Square brackets hold non-standard residues; d marks the D form. Side chains are listed from the residue outwards. Peptide text beside a SMILES is read from it. * marks the point of attachment. X1 = COc1ccc(CC[C@@H](N[*:1])c2cccc(OCC(=O)[*:2])c2)cc1OC; X2 = CN(CCC=CC(=O)OCC(C)(C)C(=O)C(=O)[*:2])[*:1]; NMeY = CN[C@@H](Cc1ccc(O)cc1)C(=O)O; Pip = O=C(O)[C@@H]1CCCCN1; Morpholide = C1CN(*)CCO1; CO = O=C([*:1])[*:2]; Sar = CNCC(=O)O
How the values were obtained:
A549 = experiment: Cell proliferation assay (Prolif.), IC50 scored relative to DMSO control; assay type: cell-based; settings: A549 cells; for Prolif, A549: IC50 class relative to DMSO control; for Rel. Prolif., A549: proliferation response relative to DMSO control, scored low/medium/high
Description: Cell Proliferation Assay (Prolif.) Guo et al. (2018) Nat. Chem. 11:254-63. Specific cell lines are indicated in each assay and cultured in complete growth media. Activity is scored according to the IC50 values relative to DMSO control. “Low” indicates an IC50 greater than 600 nM, “Medium” indicates an IC50 between 300 nM and 600 nM “High” indicates an IC50 less than 300 nM. “Rel.Uptake” refers to uptake activity characterization relative to a single concentration assay. “Low” indicates a response greater than 0.6 times the activity relative to DMSO, “Medium” indicates a response between 0.6 and 0.3 times the activity relative to DMSO, “High” indicates a response less than 0.3 times the activity relative to DMSO.

NCI-H929 = experiment: Cell proliferation, single concentration assay (Rel. Prolif.), response relative to DMSO; assay type: cell-based; settings: NCI-H929 cells, activity relative to DMSO
H929 = experiment: Cell proliferation assay (Prolif.), H929; assay type: cell-based; settings: H929 cells; scored relative to DMSO control
293T = experiment: Nucleoside uptake assay (3H-Thymidine), IC50 scored relative to DMSO control; assay type: cell-based; settings: 293T cells
Description: (§1) Nucleoside Uptake Assay (uptake). Nuceloside uptake assays were performed with using 3H-Thymidine as described in Guo et al. (2018) Nat. Chem. 11:254-63. Specific cell lines are indicated in each assay and cultured in complete growth media. Activity is scored according to the IC50 values relative to DMSO control. “Low” indicates an IC50 greater than 600 nM, “Medium” indicates an IC50 between 300 nM and 600 nM “High” indicates an IC50 less than 300 nM. “Rel.Uptake” refers to uptake activity characterization relative to a single concentration assay. “Low” indicates a response greater than 0.6 times the activity relative to DMSO, “Medium” indicates a response between 0.6 and 0.3 times the activity relative to DMSO, “High” indicates a response less than 0.3 times the activity relative to DMSO.

[1] = Nucleoside uptake, single concentration assay (Rel.Uptake); cell line indicated in each table; assay type: cell-based; settings: nucleoside uptake, single concentration assay, 293T cells, response relative to DMSO
Description: as §1

[2] = tested on: Rat Renal Ischemia-Reperfusion model; experiment: Rat Renal Ischemia-Reperfusion model; assay type: in vivo, Sprague Dawley Rats; settings: treated 30 min prior to right nephrectomy and left renal clamping; 24 hours of reperfusion; 1593 at 12 or 4 mg/kg, 1594 at 4 mg/kg
Description: Briefly, Sprague Dawley Rats were treated test compound 30 min prior to a right nephrectomy and with underwent clamping of the left renal clamping for 15 mins. After 24 hours of reperfusion, blood was collected to measure biomarkers for kidney damage and the kidney was removed for histology. […] SHAM indicates an animal group with right nephrectomy without ischemic injury. VE indicates vehicle. DPA indicates dipyridamole administered in a dosage of 10 mg/kg. Compound 1593 was administered at a high dosage (12 mg/kg) or a low dosage (4 mg/kg). Compound 1594 was administered at 4 mg/kg.

Question: For `CCCC[C@H]1C(=O)N[C@@H](Cc2ccc3ccccc3c2)C(=O)N(C)[C@@H](COC(C)(C)C)C(=O)NCC(=O)N(C)CCC=CC(=O)OCC(C)(C)C(=O)C(=O)N2CCN(C)C[C@H]2C(=O)O[C@H](CCc2ccc(OC)c(OC)c2)c2cccc(c2)OCC(=O)N1C` [Compound 572], which “Prolif, A549” value (A549) is on record?
Answer: me- dium

Question: And the “Rel. Prolif., A549” value (A549)?
Answer: medium

Question: With `CCCC[C@H]1C(=O)N[C@@H](Cc2ccc3ccccc3c2)C(=O)N(C)[C@@H](COC(C)(C)C)C(=O)NCC(=O)N(C)CCC=CC(=O)OCC(C)(C)C(=O)C(=O)N2CCCC[C@H]2C(=O)O[C@H](CCc2ccc(OC)c(OC)c2)c2cc(ccc2F)OCC(=O)N1C` [Compound 573] as the molecule, how does the “Rel. Prolif., A549” value (A549) read?
Answer: low

Question: For `CCCC[C@H]1C(=O)N[C@@H](Cc2ccc3ccccc3c2)C(=O)N(C)[C@@H](COC(C)(C)C)C(=O)NCC(=O)N(C)CCC=CC(=O)OCC(C)(C)C(=O)C(=O)N2CCCC[C@H]2C(=O)O[C@H](CCc2ccc(OC)c(OC)c2)c2cc(F)cc(c2)OCC(=O)N1C` [Compound 574], which “Rel. Prolif., A549” value (A549) is on record?
Answer: low

Question: Which results are given for `CCCC[C@H]1C(=O)N[C@@H](Cc2ccc3ccccc3c2)C(=O)N(C)[C@@H](COC(C)(C)C)C(=O)NCC(=O)N(C)CCC=CC(=O)OCC(C)(C)C(=O)C(=O)N2CCCC[C@H]2C(=O)O[C@H](CCc2ccc(OC)c(OC)c2)c2ccc(F)c(c2)OCC(=O)N1C` [Compound 576]?
Answer: Prolif, A549 (A549): me- dium; Rel. Prolif., A549 (A549): medium

Question: For `COc1ccc(CC[C@H]2OC(=O)[C@@H]3CCCCN3C(=O)C(=O)C(C)(C)COC(=O)C=CCCN(C)C(=O)[C@@H](Cc3ccccc3)NC(=O)CN(C)C(=O)[C@@H](Cc3ccccc3)NC(=O)[C@H](Cc3ccc(OC(=O)N4CCOCC4)cc3)N(C)C(=O)COc3cccc2c3F)cc1OC` [Compound 867], which “Rel. Prolif., NCI-H929” value (NCI-H929) is on record?
Answer: low

Question: Which “Rel. Prolif., NCI-H929” value (NCI-H929) does the source give for `COc1ccc(CC[C@H]2OC(=O)[C@@H]3CCCCN3C(=O)C(=O)C(C)(C)COC(=O)C=CCCN(C)C(=O)[C@@H](Cc3ccccc3)NC(=O)CN(C)C(=O)[C@@H](Cc3ccccc3)NC(=O)[C@H](Cc3ccc(OC(=O)N4CCOCC4)cc3)N(C)C(=O)COc3cc(F)cc2c3)cc1OC` [Compound 868] here?
Answer: low

Question: For `COc1ccc(CC[C@H]2OC(=O)[C@@H]3CCCCN3C(=O)C(=O)C(C)(C)COC(=O)C=CCCN(C)C(=O)[C@@H](Cc3ccccc3)NC(=O)CN(C)C(=O)[C@@H](Cc3ccccc3)NC(=O)[C@H](Cc3ccc(OC(=O)N4CCOCC4)cc3)N(C)C(=O)CCC(=O)Nc3cccc2c3)cc1OC` [Compound 869], which “Rel. Prolif., NCI-H929” value (NCI-H929) is on record?
Answer: low

Question: With `COc1ccc(CC[C@H]2NC(=O)[C@@H]3CCCCN3C(=O)C(=O)C(C)(C)COC(=O)C=CCCN(C)C(=O)[C@@H](Cc3ccccc3)NC(=O)CN(C)C(=O)[C@@H](Cc3ccccc3)NC(=O)[C@H](Cc3ccc(OC(=O)N4CCOCC4)cc3)N(C)C(=O)COc3cccc2c3)cc1OC` [Compound 877] (cyclo([NMeY]([CO-Morpholide])[dF][Sar][dF][X2][Pip][X1])) as the molecule, how does the “Prolif. H929” value (H929) read?
Answer: low

Question: For `COc1ccc(CC[C@H]2NC(=O)[C@@H]3CCCCN3C(=O)C(=O)C(C)(C)COC(=O)C=CCCN(C)C(=O)[C@H](CC(C)C)N(C)C(=O)[C@H]3CCCN3C(=O)[C@H](Cc3ccccc3)N(C)C(=O)C(c3ccccc3)NC(=O)CCC(=O)Nc3cccc2c3)cc1OC` (stereo partly drawn) [Compound 1557], which “Uptake, 293T” value (293T; 3H-Thymidine uptake, IC50 class relative to DMSO control) is on record?
Answer: high

Question: And the “Rel. Uptake, 293T” value [1]?
Answer: high

Question: With `COc1ccc(CC[C@H]2OC(=O)[C@@H]3CCCCN3C(=O)C(=O)C(C)(C)COC(=O)C=CCCN(C)C(=O)[C@H](CC(C)C)N(C)C(=O)[C@H]3CCCN3C(=O)[C@H](Cc3ccc(C(=O)Nc4ccccc4)cc3)NC(=O)[C@H](c3ccccc3)NC(=O)CCC(=O)Nc3cccc2c3)cc1OC` [Compound 1559] as the molecule, how does the “Uptake, 293T” value (293T; nucleoside uptake) read?
Answer: medium

Question: What about the “Rel. Uptake, 293T” value [1] of the same molecule?
Answer: medium

Question: With `COc1ccc(CC[C@H]2OC(=O)[C@@H]3CCCCN3C(=O)C(=O)C(C)(C)COC(=O)/C=C/CCN(C)C(=O)[C@H](CC(C)C)N(C)C(=O)[C@H]3CCCN3C(=O)[C@H](Cc3ccc(OCC(=O)O)cc3)NC(=O)[C@H](c3ccccc3)NC(=O)CCC(=O)Nc3cccc2c3)cc1OC` [Compound 1593] as the molecule, how does the “efficacy in Rat Renal Ischemia-Reperfusion model” value [2] read?
Answer: efficacious

Question: What about the “Rel. Uptake, 293T” value [1] of the same molecule?
Answer: High (“High” indicates a response less than 0.3 times the activity relative to DMSO)

Question: For `COc1ccc(CC[C@H]2OC(=O)[C@@H]3CCCCN3C(=O)C(=O)C(C)(C)COC(=O)/C=C/CCN(C)C(=O)[C@H](CC(C)C)N(C)C(=O)[C@H]3CCCN3C(=O)[C@H](Cc3ccccc3)NC(=O)[C@H](c3ccccc3)NC(=O)CCC(=O)Nc3cccc2c3)cc1OC` [Compound 1594], which “efficacy in Rat Renal Ischemia-Reperfusion model” value [2] is on record?
Answer: efficacious

Question: What about the “Rel. Uptake, 293T” value [1] of the same molecule?
Answer: Low (“Low” indicates a response greater than 0.6 times the activity relative to DMSO)

— patent US20230000996A1, “RAPAFUCIN DERIVATIVE COMPOUNDS AND METHODS OF USE THEREOF” (The Johns Hopkins University, priority 2019, published 2023)
